These results are taken from patent publication US20170165236A1, “SELECTIVE SPHINGOSINE 1 PHOSPHATE RECEPTOR MODULATORS AND COMBINATION THERAPY THEREWITH” (Celgene International II Sàrl, priority 2013, published 2017).

One test deals with S1P1 (Homo sapiens, UniProt P21453). Put plainly: Phosphorylated-ERK1/2 In Cell Western, wild type S1P1 in CHOK1. It is filed as cell-based. As for the experimental part: (§1) CHOK1 cells were transfected using Fugene (Roche). Stably expressing mixed pools were selected with 2 mg/ml G418. Expression of functional S1P1/EDG1 receptor was confirmed by cell surface FACS with a S1P1 antibody (R&D Systems, clone 218713). Stable pools were seeded at 40,000 cells/well in a clear bottom 96-well tray, and incubated at 37° C. in 5% CO2 for 18 hrs. Cells were serum-starved in FreeStyle 293 medium (Invitrogen) for 4-6 h, then incubated for 5 min with a dose response of compound, in duplicate. Cells were fixed with 4% paraformaldehyde for 20 min, permeabilized with 0.1% Triton X-100 in PBS (4×5 min washes) and blocked for 1 h in Odyssey Blocking Buffer (LI-COR). All incubations were at room temperature. Cells were incubated for 18 h at 4° C. in Rabbit anti-Phospho-ERK1/2 (Cell Signaling #4377) and Mouse anti-ERK1/2 (Cell Signaling #9107) both diluted 1:800 in Odyssey Blocking Buffer. Plates were washed with 0.1% Tween-20 in PBS and then incubated with Odyssey Blocking Buffer containing IRDye 680-labeled goat anti-rabbit antibody (#926-32221; diluted 1/500) and IRDye 800CW-labeled goat anti-mouse antibody (#926-32210; diluted 1/1000). Plates were washed with 0.1% Tween-20 in PBS, all liquid was removed from the wells and the plates were scanned using a LICOR Odyssey scanner. […] Data was analyzed by non-linear regression using GraphPad Prism to determine the EC50 of binding.

For another test, the target named is S1P1 R120A/E121A (Homo sapiens, UniProt P21453, E121A/R120A). Put plainly: Phosphorylated-ERK1/2 In Cell Western, S1P1 mutant R120A/E121A. It is filed as cell-based. Here is the method:
(§2) Quick-change mutagenesis with PfuTurbo DNA polymerase (Stratagene) was conducted using S1P1/pcDNA3.1 (Missouri S&T cDNA Resource Centre) as the template. Primers were as follows: […]
(§3) PCR conditions were 15 cycles with the following parameters: 95° C. 30 sec, 58° C. 30 sec, 68° C. for 60 sec. All constructs were sequence verified.
as §1, with “Buffer.” for “Buffer. Plates were washed with 0.1% Tween-20 in PBS and then incubated with Odyssey Blocking Buffer containing IRDye 680-labeled goat anti-rabbit antibody (#926-32221; diluted 1/500) and IRDye 800CW-labeled goat anti-mouse antibody (#926-32210; diluted 1/1000). Plates were washed with 0.1% Tween-20 in PBS, all liquid was removed from the wells and the plates were scanned using a LICOR Odyssey scanner.”

In the next test the target is S1P1 N101A (Homo sapiens, UniProt P21453, N101A). Put plainly: Phosphorylated-ERK1/2 In Cell Western, S1P1 mutant N101A. It is filed as cell-based. Here is the method: as §2, §3
as §1, with “Buffer.” for “Buffer. Plates were washed with 0.1% Tween-20 in PBS and then incubated with Odyssey Blocking Buffer containing IRDye 680-labeled goat anti-rabbit antibody (#926-32221; diluted 1/500) and IRDye 800CW-labeled goat anti-mouse antibody (#926-32210; diluted 1/1000). Plates were washed with 0.1% Tween-20 in PBS, all liquid was removed from the wells and the plates were scanned using a LICOR Odyssey scanner.”

In a further test the target is S1P1 W269L (Homo sapiens, UniProt P21453, W269L). Put plainly: S1P1 mutagenesis analysis, W269L mutant. It is filed as cell-based. Here is the method:
as §1, with “binding. […]” for “binding.”

The test system of test [1] is CD4 or CD8 positive T cells. The conditions noted are these: racemic compound 253; data stated as reported by Gonzalez-Cabrera et al. 2008; cited from earlier work.
The target of the next test is S1P1/EDG1 (Homo sapiens, UniProt P21453). Put plainly: S1P1 CRE-bla CHOK1 reporter assay, inhibition of Forskolin induced cAMP. It is filed as cell-based. The conditions noted are these: CRE-bla CHOK1 cells, 2 μM Forskolin; read-out: S1P1 ACTIVITY (agonist activity). Here is the method: Generation of S1P1-Mediated Inhibition of cAMP Reporter Assay
S1P1/pcDNA3.1 was transfected into the CRE-bla CHO K1 (Invitrogen) cell line, and stable single cell clones were selected using standard techniques.
S1P1 CRE-Bla CHOK1 Reporter Assay—Characterization of S1P1 Agonists
Cells were seeded into 384-well black wall/clear bottom plates at 10^4 cells/well/19.5 μl assay media (DMEM-phenol free, 0.5% charcoal/dextran stripped serum, 2 mM glutamine, 0.1 mM NEAA, 1 mM Na-Pyruvate, 25 mM Hepes) and incubated for 18 hrs at 37° C. in 5% CO2. Dose response curves (10-point) were generated in 10 mM Hepes, 0.1% Pluronic F127, in the presence of Forskolin. Cells were treated with 0.5 μl compound in the presence of 2 μM Forskolin for 4 hrs at 37° C. The FRET-based β-lactamase fluorescent substrate (LiveBLAzer™-FRET B/G Loading Kit CC4-AM; Invitrogen) was prepared according to manufacturer's directions, and incubated with cells for 2 hrs at room temperature. […] Data was analyzed by non-linear regression to determine the EC50 for inhibition of Forskolin induced cAMP.

For test [2], the system named is influenza A virus (A/WSN/33). Put plainly: Influenza A H1N1 model in mice. Particulars: mouse, in vivo.

Each structure is given as a SMILES string. Where only a bound is given, the exact number is not on record here.

Chain of S1P1/EDG1 (P21453 whole entry): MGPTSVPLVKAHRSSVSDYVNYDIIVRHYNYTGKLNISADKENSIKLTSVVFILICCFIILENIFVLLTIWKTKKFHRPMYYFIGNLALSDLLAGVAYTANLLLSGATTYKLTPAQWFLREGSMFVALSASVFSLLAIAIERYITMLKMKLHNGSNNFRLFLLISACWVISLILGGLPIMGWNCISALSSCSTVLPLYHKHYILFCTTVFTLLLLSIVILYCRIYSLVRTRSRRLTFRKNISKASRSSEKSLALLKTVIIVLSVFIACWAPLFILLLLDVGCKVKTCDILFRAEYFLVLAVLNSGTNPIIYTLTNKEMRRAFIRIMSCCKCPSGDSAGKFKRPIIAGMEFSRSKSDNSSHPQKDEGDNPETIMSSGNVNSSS
Chain of S1P1 (P21453 whole entry): as above
Chain of S1P1 W269L (P21453 whole entry W269L): as the sequence (P21453 whole entry) above, with W269L counted along it
Chain of S1P1 R120A/E121A (P21453 whole entry R120A/E121A): as the sequence (P21453 whole entry) above, with R120A, E121A counted along it
Chain of S1P1 N101A (P21453 whole entry N101A): as the sequence (P21453 whole entry) above, with N101A counted along it

With `CC(C)Oc1ccc(-c2nc(-c3cccc4c3CCC4NCCC(=O)O)no2)cc1C#N` (racemic) [Compound 38], the “S1P1 agonism, phosphorylation of ERK1/2” value on S1P1 is “induce phosphorylation of ERK1/2”. Further, the entries for the “effect of S1P1 mutation on binding” value at S1P1 R120A/E121A, on S1P1 N101A and on S1P1 W269L were “diminishes binding”, “no effect on binding” and “abolishes binding”, respectively.
On to `CCOc1ccc(-c2nc(-c3cccc4c3CCC4NCCO)no2)cc1OCC` (racemic) [Compound 253, (+/−)-2-((4-(5-(3,4,DIETHOXYPHENYL)-1,2,4-OXADIAZOL-3-YL)-2,3-DIHYDRO-1H-INDEN-1-YL) AMINO)ETHANOL], for which the “Mouse Lymphopenia (AUEC)” value in test [1] was 116.
For `CCOc1ccc(-c2nc(-c3cccc4c3CC[C@H]4O)no2)cc1[N+](=O)[O-]` [Compound 11], the EC50 on S1P1/EDG1 fell in the range of 500 to 5000 pM.
Same read-out and setting: the figure for `CCOc1ccc(-c2nc(-c3cccc4c3CC[C@@H]4O)no2)cc1[N+](=O)[O-]` [Compound 12] is 500 to 5000 pM; for `CC(C)Oc1ccc(-c2nc(-c3cccc4c3CCC4NC[C@H](O)CO)no2)cc1C#N` (stereo partly shown) [Compound 41] it is 50 to 500 pM.
For `CC(C)Oc1ccc(-c2nc(-c3cccc4c3CCC4NC[C@@H](C)O)no2)cc1C#N` (stereo partly shown) [Compound 42], the EC50 on S1P1/EDG1 was 500 to 5000 pM.
Same read-out and setting: the figure for `CC(C)Oc1ccc(-c2nc(-c3cccc4c3CCC4NC[C@H](C)O)no2)cc1C#N` (stereo partly shown) [Compound 43] is 50 to 500 pM.
In the case of `CC(C)Oc1ccc(-c2nc(-c3cccc4c3CC[C@@H]4N)no2)cc1C#N` [Compound 50, (S)-5-(3-(1-amino-2,3-dihydro-1H-inden-4-yl)-1,2,4-oxadiazol-5-yl)-2-isopropoxy-benzonitrile], at S1P1, the “S1P1 agonism, phosphorylation of ERK1/2” value is “induce phosphorylation of ERK1/2”. The “effect of S1P1 mutation on binding” value is “no influence on the binding” at S1P1 R120A/E121A, “reduces the binding” on S1P1 N101A and “abolishes binding” on S1P1 W269L.
Regarding `CC(C)Oc1ccc(-c2nc(-c3cccc4c3CC[C@H]4NC(C)C(=O)N(C)C)no2)cc1C#N` (stereo partly shown) [Compound 58], the EC50 at S1P1/EDG1 lay within 500 to 5000 pM.
The same measure, in the same setting: the figure for `CC(C)Oc1ccc(-c2nc(-c3cccc4c3CC[C@H]4NCC(=O)N3CCOCC3)no2)cc1C#N` [Compound 59] is 50 to 500 pM; for `CC(C)Oc1ccc(-c2nc(-c3cccc4c3CC[C@H]4NS(C)(=O)=O)no2)cc1C#N` [Compound 70] it is 50 to 500 pM.
Take `CNCCS(=O)(=O)N[C@@H]1CCc2c(-c3noc(-c4ccc(OC(C)C)c(C#N)c4)n3)cccc21` [Compound 74]: the EC50 on S1P1/EDG1 lay in the range of 50 to 500 pM.
Same read-out and setting: the result for `CC(C)Oc1ccc(-c2nc(-c3cccc4c3CC[C@H]4NS(=O)(=O)CCN(C)C)no2)cc1C#N` [Compound 77] reads 50 to 500 pM.
For the compound `CC(C)Oc1ccc(-c2nc(-c3cccc4c3CC[C@H]4NCCO)no2)cc1C#N` [Compound 85, (R)-5-(3-(1-(2-hydroxyethylamino)-2,3-dihydro-1H-inden-4-yl)-1,2,4-oxadiazol-5-yl)-2-isopropoxybenzonitrile], in test [2], the “suppression of cellular infiltrate into the lungs” value came to 40%.
`COCCN[C@@H]1CCc2c(-c3noc(-c4ccc(OC(C)C)c(C#N)c4)n3)cccc21` [Compound 88]: on S1P1/EDG1, the EC50 is 500 to 5000 pM.
In the case of `CC(C)Oc1ccc(-c2nc(-c3cccc4c3CC[C@H]4N(C)CCO)no2)cc1C#N` [Compound 111], the EC50 at S1P1/EDG1 was 500 to 5000 pM.
Regarding `CC(C)Oc1ccc(-c2nc(-c3cccc4c3CC[C@@H]4N(C)CC(=O)N(C)C)no2)cc1C#N` [Compound 115], the EC50 on S1P1/EDG1 lay in the range of 500 to 5000 pM.
Same read-out and setting: the result for `CC(C)Oc1ccc(-c2nc(-c3cccc4c3CC[C@@H]4N(CCO)S(=O)(=O)c3ccccc3)no2)cc1C#N` [Compound 117] reads more than 5000 pM.
For `CC(C)Oc1ccc(-c2nc(-c3cccc4c3CC[C@@H]4NC(=O)N(C)C)no2)cc1C#N` [Compound 120], the EC50 on S1P1/EDG1 was 50 to 500 pM.
As for `CC(C)Oc1ccc(-c2nc(-c3cccc4c3CC[C@H]4NC(=O)c3ccc(Br)cc3)no2)cc1C#N` [Compound 122], the EC50 on S1P1/EDG1 was more than 5000 pM.
Still for that read-out and setting: the figure for `CC(C)Oc1ccc(-c2nc(-c3cccc4c3CC[C@H]4NS(=O)(=O)CCN3CCC3)no2)cc1C#N` [Compound 168] is 50 to 500 pM; for `CC(C)Oc1ccc(-c2nc(-c3cccc4c3CC[C@@H]4NS(=O)(=O)CCN3CCC(O)CC3)no2)cc1C#N` [Compound 178] it is 500 to 5000 pM.
On the same count and under the same terms, the figure for `CC(C)Oc1ccc(-c2nc(-c3cccc4c3CC[C@@H]4NS(=O)(=O)CCN3CCNCC3)no2)cc1C#N` [Compound 179] is 500 to 5000 pM; for `CC(C)Oc1ccc(-c2nc(-c3cccc4c3CC[C@@H]4NS(=O)(=O)CCNCCO)no2)cc1C#N` [Compound 180] it is 50 to 500 pM; for `CC(C)Oc1ccc(-c2nc(-c3cccc4c3CC[C@@H]4NS(=O)(=O)CCN3CC(O)C3)no2)cc1C#N` [Compound 181] it is 50 to 500 pM.
